Laboratory results: publication PMC4031649 (Cell reports, 2014)

Target: T1, GGCT (Homo sapiens, UniProt O75223)
T1 sequence (O75223 1-188): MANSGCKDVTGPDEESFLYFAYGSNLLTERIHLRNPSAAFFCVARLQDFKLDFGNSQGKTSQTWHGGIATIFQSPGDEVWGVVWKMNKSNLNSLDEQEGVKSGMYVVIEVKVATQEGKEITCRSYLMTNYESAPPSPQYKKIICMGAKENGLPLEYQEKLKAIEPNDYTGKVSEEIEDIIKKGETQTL
Experiment: thin layer chromatography, ninhydrin
Type: biochemical
Details: glycine release

N[C@@H](CCC(=O)NCC(=O)O)C(=O)O [γ-glutamyl-glycine]
thin layer chromatography, ninhydrin: Both GGCT and Botch release glycine by cleavage of γ-glutamyl-glycine
